We go through 4 molecules from US6380204B1, “Atropisomers of 3-heteroaryl-4(3H)-quinazolinones for the treatment of neurodegenerative and CNS-trauma related conditions” (Pfizer INC, priority 1997, dated 2002).

One may read the melting point as the temperature, or range, at which the solid turns liquid.

Data set [1] has as its system global and focal ischemic damage. The conditions noted are these: competitive AMPA receptor antagonist; Sheardown et al., Buchan et al., LePeillet et al.; cited from earlier work.
Data set [2] relates to global ischemia. Particulars: noncompetitive AMPA receptor antagonist; LaPeillet et al.; cited from earlier work.

Molecule `CS(=O)(=O)O.Cc1nc(C=Cc2nc3ccc(F)cc3c(=O)n2-c2cccnc2C)cs1` (single isomer, unassigned) yielded a melting point of 145 to 146 °C.

With `NS(=O)(=O)c1cccc2c1c([N+](=O)[O-])cc1nc(O)c(O)nc12` [NBQX, 2,3-dihydroxy-6-nitro-7-sulfamoylbenzo[f-]quinoxaline], the “prevention of global and focal ischemic damage” value in data set [1] was “effective in preventing global and focal ischemic damage”.

Take `CC1=NN=C(c2ccc(N)cc2)c2cc3c(cc2C1)OCO3` [GKYI 52466]: the “neuroprotection in rat global ischemia models” value in data set [2] is listed as “effective neuroprotective agent”.

`Cc1nc(CCc2nc3ccc(F)cc3c(=O)n2-c2cccnc2C)cs1`: the melting point was in the range of 151 to 153 °C.
